Measurements reported in paper PMC9486936 (ACS Chemical Biology, 2022).

System: NocG
Experiment: LC-HRMS, formation of beta-ketoacid […]
Assay type: biochemical, Nodularia sp. LEGE 06071
Conditions: read-out: apparent Km; variable hexanoyl-SNAC with octanoyl-SNAC as co-substrate

CCCCCC(=O)SCCNC(C)=O [hexanoyl-SNAC]
Km: 135 ± 29 µM
